Earlier results on one compound are cited in patent US20220175758A1, “COMPOSITIONS AND METHODS TO TREAT NON-ALCOHOLIC FATTY LIVER DISEASES (NAFLD)” (Coherus Biosciences, Inc., priority 2019, published 2022).

The structures appear in SMILES notation.

The conditions of this data set: monotherapy.

As for `Cc1cc(F)c(C(=O)Nc2cccc(-c3nncn3C(C)C)n2)cc1-n1cnc(C2CC2)c1` [selonsertib], the “primary endpoint of the STELLAR-4 phase 3 clinical trial” value is on record as “failed to meet the primary endpoint”.
